# Source: patent publication US5599791A, “Amides of antibiotic GE 2270 factors” (Gruppo Lepetit SPA, priority 1991, dated 1997)
# Assays:
# [1] = system: Prop. acnes L1014 ATCC 6919; test: MIC, agar dilution; assay type: cell-based, P. acnes; details: inocula 10^4 /10^5 CFU/spot, 48 h, 37° C., anaerobic gas mixture
# Method: (§1) MIC for Propionibacterium aches, and Bacteroides fragilis are determined by agar dilution (inocula 10^4 /10^5 CFU/spot). MIC for other organisms are determined by microbroth dilution (inocula 10^4 to 10^5 CFU/ml). Incubation times are 18-24 h, except for Haemophilus influenzae, P. acnes, B. fragilis (48 h). All organisms are incubated at 37° C.; H. influenzae is incubated in a 5% CO2 atmosphere, anaerobes in an anaerobic gas mixture. Media used are: Iso-Sensitest broth (Oxoid) (Staphylococci, Streptococcus faecalis, Escherichia coli, Proteus vulgaris; brain heart infusion broth (Difco)+1% Supplement C (Difco) (H. influenzae); The minimal inhibitory concentrations (MIC, microgram/ml) for some microorganisms are reported below in Table VII.
# [2] = system: Bact. fragilis L1010 ATCC 23745; test: MIC, agar dilution; assay type: cell-based, Bacteroides fragilis; details: inocula 10^4 /10^5 CFU/spot, 48 h, 37° C., anaerobic gas mixture
# Method: as §1
# Esch. coli L47 SKF 12140 = test: MIC, microbroth dilution; assay type: cell-based, Escherichia coli; details: inocula 10^4 to 10^5 CFU/ml, Iso-Sensitest broth, 18-24 h, 37° C.
# Method: as §1
# Prot. vulgaris ATCC 881 = test: MIC, microbroth dilution; assay type: cell-based, Proteus vulgaris; details: inocula 10^4 to 10^5 CFU/ml, Iso-Sensitest broth, 18-24 h, 37° C.
# Method: as §1
# [3] = system: Strep. faecalis L149 ATCC 7080; test: MIC, microbroth dilution; assay type: cell-based, Streptococcus faecalis; details: inocula 10^4 to 10^5 CFU/ml, Iso-Sensitest broth, 18-24 h, 37° C.
# Method: as §1
# [4] = system: Haemophilus Influenzae type B; test: MIC, microbroth dilution; assay type: cell-based; details: brain heart infusion broth +1% Supplement C, 48 h, 37° C., 5% CO2
# Method: as §1
# Staph. aureus L165 Tour = test: MIC, microbroth dilution; assay type: cell-based; details: inocula 10^4 to 10^5 CFU/ml, Iso-Sensitest broth, 18-24 h, 37° C.
# Method: as §1
# [5] = system: Strep. pneumoniae L44 UC41; test: MIC, microbroth dilution; assay type: cell-based; details: inocula 10^4 to 10^5 CFU/ml, 18-24 h, 37° C.
# Method: as §1
# [6] = system: Staph. epidermidis L147 ATCC 12228; test: MIC, microbroth dilution; assay type: cell-based; details: inocula 10^4 to 10^5 CFU/ml, Iso-Sensitest broth, 18-24 h, 37° C.
# Method: as §1
# Staph. haemolyticus L602 = test: MIC, microbroth dilution; assay type: cell-based; details: inocula 10^4 to 10^5 CFU/ml, Iso-Sensitest broth, 18-24 h, 37° C.
# Method: as §1
MIC [1],MIC [2],MIC (Esch. coli L47 SKF 12140),MIC (Prot. vulgaris ATCC 881),MIC [3],MIC [4],MIC (Staph. aureus L165 Tour),MIC [5],MIC [6],Compound,MIC (Staph. haemolyticus L602)
≤ 0.13 microgram/ml,8 microgram/ml,> 128 microgram/ml,> 128 microgram/ml,≤ 0.13 microgram/ml,1 microgram/ml,0.13 microgram/ml,4 microgram/ml,0.25 microgram/ml,CNC(=O)CC1NC(=O)c2nc(sc2COC)C(C(C)C)NC(=O)c2csc(n2)-c2ccc(-c3nc(C(=O)NCCSCCC(=O)O)cs3)nc2-c2csc(n2)-c2csc(n2)C(C(O)c2ccccc2)NC(=O)CNC(=O)c2nc1sc2C (stereo not drawn) [Compound 39],2 microgram/ml
≤ 0.13 microgram/ml,4 microgram/ml,> 128 microgram/ml,> 128 microgram/ml,≤ 0.13 microgram/ml,1 microgram/ml,0.25 microgram/ml,2 microgram/ml,0.5 microgram/ml,CNC(=O)CC1NC(=O)c2nc(sc2COC)C(C(C)C)NC(=O)c2csc(n2)-c2ccc(-c3nc(C(=O)NCCOCCC(=O)O)cs3)nc2-c2csc(n2)-c2csc(n2)C(C(O)c2ccccc2)NC(=O)CNC(=O)c2nc1sc2C (stereo not drawn) [Compound 41],1 microgram/ml

# The next lines start with the molecule.
Compound,MIC [1],MIC [2],MIC (Esch. coli L47 SKF 12140),MIC (Prot. vulgaris ATCC 881),MIC [3],MIC [4],MIC (Staph. aureus L165 Tour),MIC [5],MIC [6],MIC (Staph. haemolyticus L602)
CNC(=O)CC1NC(=O)c2nc(sc2COC)C(C(C)C)NC(=O)c2csc(n2)-c2ccc(-c3nc(C(=O)NCCNCCC(=O)O)cs3)nc2-c2csc(n2)-c2csc(n2)C(C(O)c2ccccc2)NC(=O)CNC(=O)c2nc1sc2C (stereo not drawn) [Compound 38],0.25 microgram/ml,> 128 microgram/ml,> 128 microgram/ml,> 128 microgram/ml,16 microgram/ml,> 128 microgram/ml,32 microgram/ml,> 128 microgram/ml,32 microgram/ml,64 microgram/ml
CNC(=O)CC1NC(=O)c2nc(sc2COC)C(C(C)C)NC(=O)c2csc(n2)-c2ccc(-c3nc(C(=O)NCCCCCC(=O)O)cs3)nc2-c2csc(n2)-c2csc(n2)C(C(O)c2ccccc2)NC(=O)CNC(=O)c2nc1sc2CO (stereo not drawn) [Compound 42],0.016 microgram/ml,> 128 microgram/ml,> 128 microgram/ml,> 128 microgram/ml,0.13 microgram/ml,4 microgram/ml,"0,13 microgram/ml",1 microgram/ml,"0,13 microgram/ml",0.5 microgram/ml
Cc1sc2nc1C(=O)NCC(=O)NC(C(O)c1ccccc1)c1nc(cs1)-c1nc(cs1)-c1nc(-c3nc(C(=O)NCCCCCC(=O)O)cs3)ccc1-c1nc(cs1)C(=O)NC(C(C)C)c1nc(cs1)C(=O)NC2CC(N)=O (stereo not drawn) [Compound 43],0.016 microgram/ml,> 128 microgram/ml,> 128 microgram/ml,> 128 microgram/ml,0.13 microgram/ml,> 128 microgram/ml,0.13 microgram/ml,0.5 microgram/ml,0.5 microgram/ml,0.5 microgram/ml
CNC(=O)CC1NC(=O)c2nc(sc2CO)C(C(C)C)NC(=O)c2csc(n2)-c2ccc(-c3nc(C(=O)NCCCCCC(=O)O)cs3)nc2-c2csc(n2)-c2csc(n2)C(C(O)c2ccccc2)NC(=O)CNC(=O)c2nc1sc2C (stereo not drawn) [Compound 44],0.016 microgram/ml,> 128 microgram/ml,> 128 microgram/ml,> 128 microgram/ml,0.06 microgram/ml,> 128 microgram/ml,0.13 microgram/ml,1 microgram/ml,0.5 microgram/ml,1 microgram/ml
